A short description of this data set: logP determination by retention times (calibration with alkan-2-ones). The conditions noted are these: values marked *: HPLC on reversed-phase C 18, 40° C., mobile phase 0.1% aqueous formic acid and acetonitrile, linear gradient 10% to 95% acetonitrile.

In general, chromatographic logP refers to a lipophilicity value derived from retention on a column. A high value points to a more lipophilic compound.

Each structure is given as a SMILES string.

For the compound `Cc1ccc(Nc2nccc(-c3sc(NCC4CCCO4)nc3C)n2)cc1[N+](=O)[O-]` (centres unmarked) [Example 810, N-(4-methyl-3-nitrophenyl)-4-{4-methyl-2-[(tetrahydrofuran-2-ylmethyl)amino]-1,3-thiazol-5-yl}pyrimidine-2-amine], the chromatographic logP was 2.33.
Still for that read-out and setting: under `CC(=O)c1ccc(Nc2nccc(-c3sc(NCC4CCCO4)nc3C)n2)cc1` (centres unmarked) [Example 816, 1-{4-[(4-{4-methyl-2-[(tetrahydrofuran-2-ylmethyl)amino]-1,3-thiazol-5-yl}pyrimidin-2-yl)amino]phenyl}ethanone] stands 1.83; under `COc1ccc(Nc2nccc(-c3sc(NCC4CCCO4)nc3C)n2)cc1OC` (centres unmarked) [Example 817, N-(3,4-dimethoxyphenyl)-4-{4-methyl-2-[(tetrahydrofuran-2-ylmethyl)amino]-1,3-thiazol-5-yl}pyrimidine-2-amine], 1.65; under `CC(=O)Nc1cccc(Nc2nccc(-c3sc(C(C)C)nc3C)n2)c1` [Example 818, N-(3-{[4-(2-isopropyl-4-methyl-1,3-thiazol-5-yl)pyrimidin-2-yl]amino}phenyl)acetamide], 2.26.
Same read-out and setting: then `COc1ccc(Nc2nccc(-c3sc(C(C)C)nc3C)n2)cc1OC` [Example 819, N-(3,4-dimethoxyphenyl)-4-(2-isopropyl-4-methyl-1,3-thiazol-5-yl)pyrimidine-2-amine], with 2.85; and `CC(=O)c1ccc(Nc2nccc(-c3sc(C(C)C)nc3C)n2)cc1` [Example 820, 1-(4-{[4-(2-isopropyl-4-methyl-1,3-thiazol-5-yl)pyrimidin-2-yl]amino}phenyl)ethanone], with 3.06; and `COc1ccc(Nc2nccc(-c3sc(C(C)C)nc3C)n2)cc1` [Example 821, 4-(2-isopropyl-4-methyl-1,3-thiazol-5-yl)-N-(4-methoxyphenyl)pyrimidine-2-amine], with 3.25.
Same read-out and setting: under `Cc1nc(C(C)C)sc1-c1ccnc(Nc2ccc(N3CCCC3=O)cc2)n1` [Example 831, 1-(4-{[4-(2-isopropyl-4-methyl-1,3-thiazol-5-yl)pyrimidin-2-yl]amino}phenyl)pyrrolidin-2-one] stands 2.56; under `COCCNc1nc(C)c(-c2ccnc(Nc3ccc(F)cc3F)n2)s1` [Example 832, N-(2,4-difluorophenyl)-4-{2-[(2-methoxyethyl)amino]-4-methyl-1,3-thiazol-5-yl}pyrimidine-2-amine], 1.99.
In turn, `CCc1nc(C)c(-c2ccnc(Nc3ccc(F)c(N4CCN(C(C)=O)CC4)c3)n2)s1` [Example 848, N-[3-(4-acetylpiperazin-1-yl)-4-fluorophenyl]-4-(2-ethyl-4-methyl-1,3-thiazol-5-yl)pyrimidine-2-amine] returned a chromatographic logP of 2.42.
With `Cc1nc(N(C)C)sc1-c1ccnc(Nc2ccc(F)cc2)n1` [Example 849, 4-[2-(dimethylamine)-4-methyl-1,3-thiazol-5-yl]-N-(4-fluorophenyl)pyrimidine-2-amine], the logP was 1.99*.
With `COc1cc(Nc2nccc(-c3sc(N(C)C)nc3C)n2)cc(OC)c1OC` [Example 850, 4-[2-(dimethylamine)-4-methyl-1,3-thiazol-5-yl]-N-(3,4,5-trimethoxyphenyl)pyrimidine-2-amine], the logP is listed as 1.77*.
In the case of `COCCCNc1nc(C)c(-c2ccnc(Nc3ccc(F)cc3)n2)s1` [Example 851, N-(4-fluorophenyl)-4-{2-[(3-methoxypropyl)amino]-4-methyl-1,3-thiazol-5-yl}pyrimidine-2-amine], the chromatographic logP amounted to 1.92.
Same read-out and setting: then `COCCCNc1nc(C)c(-c2ccnc(Nc3cccc(OC)c3)n2)s1` [Example 852, N-(3-methoxyphenyl)-4-{2-[(3-methoxypropyl)amino]-4-methyl-1,3-thiazol-5-yl}pyrimidine-2-amine], with 1.89.
The same measure, in the same setting: under `COCCCNc1nc(C)c(-c2ccnc(Nc3cccc(NC(C)=O)c3)n2)s1` [Example 853, N-{3-[(4-{2-[(3-methoxypropyl)amino]-4-methyl-1,3-thiazol-5-yl}pyrimidin-2-yl)amino]phenyl}acetamide] stands 1.44; under `COCCCNc1nc(C)c(-c2ccnc(Nc3ccc(NC(C)=O)cc3)n2)s1` [Example 854, N-{4-[(4-{2-[(3-methoxypropyl)amino]-4-methyl-1,3-thiazol-5-yl}pyrimidin-2-yl)amino]phenyl}acetamide], 1.4.
Still for that read-out and setting: then `COCCCNc1nc(C)c(-c2ccnc(Nc3ccc(C(C)=O)cc3)n2)s1` [Example 855, 1-{4-[(4-{2-[(3-methoxypropyl)amino]-4-methyl-1,3-thiazol-5-yl}pyrimidin-2-yl)amino]phenyl}ethanone], with 1.81; and `COCCCNc1nc(C)c(-c2ccnc(Nc3ccc(N4CCCC4=O)cc3)n2)s1` [Example 856, 1-{4-[(4-{2-[(3-methoxypropyl)amino]-4-methyl-1,3-thiazol-5-yl}pyrimidin-2-yl)amino]phenyl}pyrrolidin-2-one], with 1.57; and `COCCCNc1nc(C)c(-c2ccnc(Nc3ccc(F)c(C)c3)n2)s1` [Example 857, N-(4-fluoro-3-methylphenyl)-4-{2-[(3-methoxypropyl)amino]-4-methyl-1,3-thiazol-5-yl}pyrimidine-2-amine], with 2.11.
`COCCCNc1nc(C)c(-c2ccnc(Nc3ccc(OC)nc3)n2)s1` [Example 858, 4-{2-[(3-methoxypropyl)amino]-4-methyl-1,3-thiazol-5-yl}-N-(6-methoxypyridin-3-yl)pyrimidine-2-amine]: the chromatographic logP stood at 1.57.
For the compound `CN(C)c1nc(C(F)(F)F)c(-c2ccnc(Nc3cccc([N+](=O)[O-])c3)n2)s1` [Example 859, 4-[2-(dimethylamine)-4-(trifluoromethyl)-1,3-thiazol-5-yl]-N-(3-nitrophenyl)pyrimidine-2-amine], the logP is 3.99*.
The same measure, in the same setting: then `CC(=O)Nc1cccc(Nc2nccc(-c3sc(N(C)C)nc3C(F)(F)F)n2)c1` [Example 860, N-[3-({4-[2-(dimethylamine)-4-(trifluoromethyl)-1,3-thiazol-5-yl]pyrimidin-2-yl}amino)phenyl]acetamide], with 2.65*.
`COCCCNc1nc(C)c(-c2ccnc(Nc3cccc(N4CCCC4=O)c3)n2)s1` [Example 861, 1-{3-[(4-{2-[(3-methoxypropyl)amino]-4-methyl-1,3-thiazol-5-yl}pyrimidin-2-yl)amino]phenyl}pyrrolidin-2-one] returned a chromatographic logP of 1.62.
With `CC(=O)Nc1ccc(Nc2nccc(-c3sc(N(C)C)nc3C)n2)cc1` [Example 862, N-[4-({4-[2-(dimethylamine)-4-methyl-1,3-thiazol-5-yl]pyrimidin-2-yl}amino)phenyl]acetamide], the logP is listed as 1.33*.
For `CCc1nc(C)c(-c2ccnc(Nc3ccc(F)c(OC)c3)n2)s1` [Example 863, 4-(2-ethyl-4-methyl-1,3-thiazol-5-yl)-N-(4-fluoro-3-methoxyphenyl)pyrimidine-2-amine], the chromatographic logP was 2.99.
The same measure, in the same setting: under `COCC(C)Nc1nc(C)c(-c2ccnc(Nc3ccc(S(N)(=O)=O)cc3)n2)s1` (centres unmarked) [Example 864, 4-[(4-{2-[(2-methoxy-1-methylethyl)amino]-4-methyl-1,3-thiazol-5-yl}pyrimidin-2-yl)amino]benzenesulphonamide] stands 1.49.

The record behind these values is patent publication US20090030024A1, “THIAZOLES AS FUNGICIDES” (priority 2005, published 2009).
